{"source": "patent US20080247966A1", "about": "“Compositions and Methods to Counteract Oral Malodour” (GIVAUDAN SA, priority 2005, published 2008)", "origin": "cited, not measured here", "system": "microorganisms such as yeasts", "details": "oral care compositions with C1-C4 lower alcohols, WO 99/51093"}
{"smiles": "CCCCCCCCO", "note": "[octanol, octan-1-ol]", "values": [{"measurement": "effect on microorganisms such as yeasts", "value": "no effect"}]}
